Consider 25 compounds from ChEMBL document CHEMBL3352601, “Discovery of potent iminoheterocycle BACE1 inhibitors” (Bioorg Med Chem Lett, 2014).

Usually Ki stands for the dissociation constant of the complex between target and ligand, obtained from inhibition or displacement. Broadly, the EC50 is the concentration at which the effect is half-maximal. The term AUC(0-t) denotes exposure summed from dosing to a finite time, without extrapolation to infinity.

Activity calls are given as the source filed them. No cut-off for these calls is given here. A value given as a limit tells only on which side of the number the result lay.

The target in one data set is Cathepsin D (Homo sapiens, UniProt P07339).
In data set [1] the target is T1, Beta-secretase 1 (Homo sapiens, UniProt P56817).
Description: Inhibition of purified human BACE1 by FRET assay
A further data set has as its system Rattus norvegicus. Kind of data set: Reduction of amyloid beta 40 level in rat plasma at 30 mg/kg, po relative to control. The class given is functional. Details: scale not given: the % may be the effect or the level left.
Data set [2] addresses T1, Beta-secretase 1. Kind of data set: Inhibition of BACE1-mediated amyloid beta 40 production in HEK293-APPswe/lon cells by whole cell assay in presence of P-gp inhibitor. The class given is cell-based.
The species named for another data set is Mus musculus. Kind of data set: Reduction of cortical amyloid beta 40 level in CRND8-APP mouse model. The class given is functional, organism-based.
The nature of a further data set: in vivo. Particulars: rat, plasma, sc, 10 mg/kg.
The target of data set [3] is T1, Beta-secretase 1. Kind of data set: Inhibition of BACE1-mediated amyloid beta 40 production in HEK293-APPswe/lon cells by whole cell assay. The class given is cell-based.

Cathepsin D, sequence (P07339 65-162 limits assumed): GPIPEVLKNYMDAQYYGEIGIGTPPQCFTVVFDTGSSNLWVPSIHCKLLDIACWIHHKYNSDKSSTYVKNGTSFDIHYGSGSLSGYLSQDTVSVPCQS
Cathepsin D, sequence (P07339 169-412 limits assumed): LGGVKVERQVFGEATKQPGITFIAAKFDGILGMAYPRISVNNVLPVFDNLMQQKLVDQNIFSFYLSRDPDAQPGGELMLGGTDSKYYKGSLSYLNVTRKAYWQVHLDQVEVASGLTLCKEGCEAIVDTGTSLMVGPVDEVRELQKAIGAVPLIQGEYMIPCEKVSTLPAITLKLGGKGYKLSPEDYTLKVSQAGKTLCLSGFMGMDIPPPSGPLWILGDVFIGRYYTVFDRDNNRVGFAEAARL
T1 sequence (P56817 whole entry): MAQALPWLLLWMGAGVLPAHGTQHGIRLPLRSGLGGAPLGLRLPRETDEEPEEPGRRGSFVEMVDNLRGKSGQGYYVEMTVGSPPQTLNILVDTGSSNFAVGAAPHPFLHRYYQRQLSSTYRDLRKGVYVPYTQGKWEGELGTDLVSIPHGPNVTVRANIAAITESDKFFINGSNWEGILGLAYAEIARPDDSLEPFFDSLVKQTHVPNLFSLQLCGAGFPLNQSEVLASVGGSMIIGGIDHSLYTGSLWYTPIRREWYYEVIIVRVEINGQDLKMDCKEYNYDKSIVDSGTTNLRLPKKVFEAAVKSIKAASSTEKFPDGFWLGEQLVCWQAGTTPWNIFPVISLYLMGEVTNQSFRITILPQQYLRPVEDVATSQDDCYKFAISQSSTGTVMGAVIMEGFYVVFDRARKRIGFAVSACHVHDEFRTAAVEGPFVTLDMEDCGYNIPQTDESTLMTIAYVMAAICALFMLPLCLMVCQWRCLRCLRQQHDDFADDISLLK
Description for Cathepsin D: Inhibition of cathepsin-D (unknown origin)

On to `CN1C(=N)N[C@](CCC2CCCCC2)(C[C@H]2CCC[C@@H](NC(=O)c3ccccc3)C2)C1=O`, for which the inhibition constant Ki at Cathepsin D was 3.8 µM; on Beta-secretase 1 [1], 0.13 µM.

As for `CN1C(=N)N[C@](CCC2CCCCC2)(C[C@H]2CCCN(C(=O)OC(C)(C)C)C2)C1=O`, the inhibition constant Ki at Cathepsin D is more than 100 µM; on Beta-secretase 1 [1], 29 µM.

Consider `CN1C(=N)N[C@](CCC2CCCCC2)(C[C@@H]2CCCNC2)C1=O`, for which the Ki was more than 100 µM on Cathepsin D and 66 µM at Beta-secretase 1 [1].

On Cathepsin D, `CN1C(=N)N[C@](CCC2CCCCC2)(C[C@H]2CCCN(C(=O)CC3CCCC3)C2)C1=O` showed a Ki of 0.87 µM.

As to `CCCCC(=O)N1CC[C@H](C[C@@]2(CCC3CCCCC3)NC(=N)N(C)C2=O)C1`, the inhibition constant Ki on Cathepsin D was 23 µM; at Beta-secretase 1 [1], 0.49 µM.

As to `COc1ccccc1NC(=O)N[C@@H]1CCC[C@H](C[C@@]2(CCC3CCCCC3)NC(=N)N(C)C2=O)C1`, the inhibitory constant (Ki) was 2.4 µM on Cathepsin D and 0.276 µM at Beta-secretase 1 [1].

Take `CN1C(=N)N[C@](CCC2CCCCC2)(C[C@H]2CCC[C@@H](NC3CCCCC3)C2)C1=O`: the inhibition constant Ki is 63.5 µM on Cathepsin D and 0.23 µM at Beta-secretase 1 [1].

On to `CCCCC(=O)N1CCC[C@@H](C[C@@]2(CCC3CCCCC3)NC(=N)N(C)C2=O)C1`, for which the inhibition constant (Ki) was 28 µM on Cathepsin D and 17 µM at Beta-secretase 1 [1].

Regarding `CCCCCN1CCC[C@H](C[C@@]2(CCC3CCCCC3)NC(=N)N(C)C2=O)C1`, the results for the inhibition constant (Ki) on Cathepsin D and at Beta-secretase 1 [1] were more than 100 µM and 7.6 µM, respectively.

As to `CCCCS(=O)(=O)N1CCC[C@H](C[C@@]2(CCC3CCCCC3)NC(=N)N(C)C2=O)C1`, the inhibitory constant (Ki) on Cathepsin D was 25.5 µM; at Beta-secretase 1 [1], 6.3 µM.

On to `CN1C(=N)N[C@](CCC2CCCCC2)(C[C@@H]2CCCN(C(=O)OC(C)(C)C)C2)C1=O`, for which the Ki at Cathepsin D amounted to 33 µM; on Beta-secretase 1 [1] it was 41 µM.

In the case of `CCCNC(=O)N1CCC[C@H](C[C@@]2(CCC3CCCCC3)NC(=N)N(C)C2=O)C1`, the Ki at Cathepsin D turned out to be 2.8 µM; at Beta-secretase 1 [1], 8.5 µM.

Consider `CN1C(=N)N[C@](CCC2CCCCC2)(C[C@H]2CCC[C@@H](NC(=O)Cc3ccccc3)C2)C1=O`, for which the Ki was 3.5 µM at Cathepsin D and 0.585 µM on Beta-secretase 1 [1].

For the compound `CN1C(=N)N[C@](CCC2CCCCC2)(C[C@H]2CCC[C@@H](NC(=O)NC3CCCCC3)C2)C1=O`, the Ki was determined as 6 µM on Cathepsin D and 0.138 µM at Beta-secretase 1 [1].

On to `CN1C(=N)N[C@](CCC2CCCCC2)(C[C@H]2CCC[C@@H](NCC3CC3)C2)C1=O`, for which the Ki on Cathepsin D amounted to 53.3 µM; at Beta-secretase 1 [1], 0.48 µM.

On to `CN1C(=N)N[C@](CCC2CCCCC2)(C[C@H]2CCC[C@@H](NC(=O)Nc3ccc(C#N)cc3)C2)C1=O`, for which the Ki at Cathepsin D stood at 6.9 µM; on Beta-secretase 1 [1], 0.003 µM.

Consider `CCCCC(=O)N1CCC[C@H](C[C@@]2(CCC3CCCCC3)NC(=N)N(C)C2=O)C1`, for which the Ki on Cathepsin D worked out at 44 µM; at Beta-secretase 1 [1], 3.2 µM.

Consider `CCCCC(=O)N1CC[C@@H](C[C@@]2(CCC3CCCCC3)NC(=N)N(C)C2=O)C1`, for which the inhibitory constant (Ki) at Beta-secretase 1 [1] was 17.4 µM.

For `COc1ccc(NC(=O)N[C@@H]2CCC[C@H](C[C@@]3(CCC4CCCCC4)NC(=N)N(C)C3=O)C2)cc1`, the values for the inhibitory constant (Ki) on Cathepsin D and at Beta-secretase 1 [1] were 2.5 µM and 0.01 µM, respectively.

Take `CN1C(=N)N[C@](CCC2CCCCC2)(C[C@H]2CCC[C@@H](NC(=O)Nc3ccc(Cl)cc3)C2)C1=O`: the inhibitory constant (Ki) at Cathepsin D is more than 100 µM; on Beta-secretase 1 [1] it was 0.01 µM.

On to `CN1C(=N)N[C@](CCC2CCCCC2)(C[C@@H]2CCCN(C(=O)CC3CCCC3)C2)C1=O`, for which the Ki on Cathepsin D is 8.5 µM.

For `CN1C(=N)N[C@](CCC2CCCCC2)(C[C@H]2CCCNC2)C1=O`, the figures for the Ki at Cathepsin D and at Beta-secretase 1 [1] were more than 100 µM and 8.5 µM, respectively.

As for `CN1C(=N)N[C@](CCC2CCCCC2)(C[C@H]2CCC[C@@H](NC(=O)Nc3ccc4ccccc4n3)C2)C1=O`, the figures for the Ki at Cathepsin D and at Beta-secretase 1 [1] were 25 µM and 0.022 µM, respectively. Also, the Activity in the data set with Rattus norvegicus is recorded as 55%. Moreover, the EC50 came out at 0.11 µM at Beta-secretase 1 [2] and 0.258 µM on Beta-secretase 1 [3]. The result in the data set filed under Mus musculus was inactive. This compound came in with an area under the curve AUC(0-t) at 6 h in “in vivo” of 306 nM·h.

For the compound `CN1C(=N)N[C@](CCC2CCCCC2)(C[C@H]2CCC[C@@H](NC(=O)Nc3cnc4ccccc4n3)C2)C1=O`, the values for the inhibition constant Ki at Cathepsin D and on Beta-secretase 1 [1] were 7.5 µM and 0.014 µM, respectively.

For `CN1C(=N)N[C@](CCC2CCCCC2)(C[C@H]2CCC[C@@H](NC(=O)Nc3ccccc3Cl)C2)C1=O`, the inhibitory constant (Ki) on Cathepsin D was found to be 8.5 µM; at Beta-secretase 1 [1] it was 0.301 µM.
